Entries after “also recorded” stand apart in the source; their conditions may differ. Read-outs that look alike come from different tables or passages of the source.
Assays:
[1] = system: skin erythemal response induced by solar simulated UV on the dorsal skin of human subjects; assay: Human study: reduction of skin erythemal response induced by solar simulated UV; type: in vivo; settings: for Reduction in Erythema vs Base: 4 mg/sq cm immediately after irradiation and 4-5 hours later, erythema read 16-24 hours later; for statistical difference from the Base and UV alone (MED): p<0.05
[2] = system: carrageenan induced hind paw edema; settings: cited from earlier work
[3] = cited from earlier work
[4] = 1% (1.0%) in BP 1988 Cetomacrogol Cream
[5] = 0.25% in BP 1988 Cetomacrogol Cream
[6] = 0.5% in BP 1988 Cetomacrogol Cream

| Structure (SMILES) | Reduction in Erythema vs Base [1, 4] [%] | anti-inflammatory effectiveness in words (compared to Indomethacin) ([1]; 1% (1.0%) product) | Reduction in Erythema vs Base [1, 5] [%] | Reduction in Erythema vs Base [1, 6] [%] | anti-inflammatory effectiveness in words (compared to Indomethacin) ([1]; 0.25% product) | further results |
| --- | --- | --- | --- | --- | --- | --- |
| COc1ccc2c(c1)c(CC(=O)O)c(C)n2C(=O)c1ccc(Cl)cc1 [Indomethacin, reference compound] | 66 | most effective anti-inflammatory | – | – | – | – |
| CC1=CCC(O)(C(C)C)CC1 (stereo not drawn) [Terpinen-4-ol, terpinen-4-ol, reference compound] | – | good performance status | 7 | 45 | – | anti-inflammatory activity ([2]; dosages from 0.03 mg/paw to 6.0 mg/paw): significant anti-inflammatory activity; acute oral LD50 [3]: 1300 mg/kg |
| CC(C)=CCC[C@](C)(O)[C@@H]1CC=C(C)CC1 [(−) alpha-Bisabolol, (−)-alpha-bisabolol, reference compound] | – | – | 10 | 44 | – | statistical difference from the Base and UV alone (MED) ([1]; 0.50% product): statistically different |
| CC1=CC=C(C(C)C)CC1 [α-terpinene] | – | – | 58 | – | good performance status | anti-inflammatory activity (inhibition of edema formation) ([2]; highest dose tested, 6 mg/paw): significant anti-inflammatory activity; anti-inflammatory activity (inhibition of edema formation) ([2]; lesser dosages than 6 mg/paw): relatively weak |
| CC1=CCC(C(C)C)=CC1 [γ-terpinene] | 32 | statistically similar | 52 | 29 | high effective anti-inflammatory | statistical difference from the Base and UV alone (MED) ([1]; 0.25% product): statistically different; more erythema than Indomethacin ([1]; 1.0% product vs 1% Indomethacin): 98%; reducing UV erythema (MED) ([1]; 1.0% product vs UV alone (MED)): 39%; statistical difference from the Base and UV alone (MED) ([1]; 1.0% product): not significantly different from the Base; also recorded: significantly different from the MED; anti-inflammatory activity ([2]; dose not given): ineffective; also recorded: did not exhibit any significant anti-inflammatory activity |

Reference: US20060148907A1, “Topical antinflammatory preparations of y-terpinene” (priority 2002, published 2006)
